Common to all, as to type: in vivo, SD rats
Series [1] deals with pulmonary arterial hypertension (PAH) models. Nature of the series: PAH model, blood flow and blood pressure measurement. The settings on record: MCT + Sildenafil 25 mpk, orally every day, 3 weeks. From the text: (§1) To induce PAH in 7-week-old SD rats (Oriental Bio), 60 mpk of MCT (monocrotaline) were subcutaneously injected. Thereafter, the rats were divided into four groups (tested with five animals in each group), and were administrated with 1mpk of Mock human IgG (Thermo Fisher Scientific, negative control), 1mpk of N3 IgG antibody, 10mpk of N3 IgG antibody, and 25 mpk of sildenafil (positive control) for 3 weeks. All antibodies were i.v. injected twice a week and sildenafil was orally administered every day.
After three weeks, the rats were anesthetized with isoflurane, and blood flow and pressure were measured using an MPVS Cardiovascular Pressure and Volume system (model name: MPVS Ultra, manufacturer: Millar Instruments). The right ventricular end-systolic pressure (RVESP), right ventricular end-diastolic pressure, left ventricular end-systolic pressure, left ventricular end-diastolic pressure were measured using an exclusive catheter (Mikro-Tip rat pressure catheter, manufacturer: Millar Instruments). The cardiac output was measured using a perivascular blood flow probe (Transonic Flow probes, manufacturer: […]), and experimental method thereof was performed by the same method as disclosed in the following literature: Pacher P, Nagayama T, Mukhopadhyay P, Batkai S, Kass DA. Measurement of cardiac function using pressure-volume conductance catheter technique in mice and rats. Nat Protoc 2008; 3 (9): 1422-34.

For series [2] the test system is unchanged. As to the kind of experiment: PAH model, echocardiography. The settings on record: MCT PAH rats.
From the text: as §1

The nature of series [3]: PAH model, body weight and abnormal signs. The settings on record: MCT + Sildenafil.
From the text: as §1

The record followed here is patent US12679903B2, “Antibody for specifically binding to lysyl-tRNA synthetase N-terminal domain exposed to extracellular membrane” (Zymedi Co., Ltd., priority 2018, dated 2026).

Consider `CCCc1nn(C)c2c(=O)[nH]c(-c3cc(S(=O)(=O)N4CCN(C)CC4)ccc3OCC)nc12` [Sildenafil, sildenafil], for which, in series [1], the CO stood at 49.6 ± 17.7 mL/min, the LVEDP is 3.6 ± 2.3 mmHg, the LVESP came out at 83.2 ± 4.7 mmHg and the RVEDP is given as 2.6 ± 1.3 mmHg. The RVESP in series [1] is 48.4 ± 9.6 mmHg. Also, the “D-shaped left ventricle indicating pressure overload in the right ventricle” value in series [2] is given as “three animals”. For the same compound, in series [3], the “body weight, Absolute change” value worked out at 104.1 ± 26.4 g and the “body weight, Relative change” value was 49.8 ± 10.5%.
